The source of these data is US5428059A, “Benzopyran derivatives and an anti-allergic agent possessing the same as the active ingredient” (Dainippon Ink & Chemicals, Inc., priority 1991, dated 1995).

The structures appear in SMILES notation.

In one assay the test system is Hartley-type male guinea pigs. The assay can be described thus: Guinea Pig Homogeneous Skin Passive Anaphylaxis Assay (PCA reaction). The format is in vivo, guinea pig (Hartley-type). The following applies: 10 mg/kg oral, 48 h after sensitization. As to the method:
In order to confirm the anti-allergic action of the compounds according to the present invention, as an anti-allergic action confirmation assay, the widely used Guinea Pig Homogeneous Skin Passive Anaphylaxis Assay (PCA Reaction Assay; Passive Cutaneous Anaphylaxis Reaction Assay) was carried out. The assay method used will be explained in the following.
Assay method: Hartley-type male guinea pigs (body weight: 250~300 g) were sensitized by the following procedure; a mixture of 2 μg of egg albumin (OVA) and 5 μg of aluminium hydroxide gel was administered intraperitoneally 3 times every 2 weeks, and the anti-OVA blood serum was manufactured.
The anti-blood serum obtained was then diluted 120 times using physiological saline solution, and then to groups each containing 6 shaved guinea pigs, was injected at a quantity of 0.05 ml respectively, into two positions in the back portion, inside the skin of each animal.
After the 48th hour of sensitization, 10 mg/kg of the test substance to be tested was orally administered, following which a mixture of 2 mg OVA and 5 mg of Evans Blue was administered by intraveneous injection into the hind leg, triggering the anaphylaxis reaction. As the positive control, Tranilast, a well known anti-allergic agent, was used, and in the same manner as the substances to be tested, 100 mg/kg of it was orally administered after the 48th hour of sensitization.
30 minutes after triggering the reaction, the animals were bled to death under ether anesthesia, and their back portion skins were peeled off. The long and short diameters of pigment leakage spots on the interior surface of the skins were measured, and the product of these (mm^2) were entered into formula 1 as "pigment leakage amount", from which the allergic reaction inhibitory index wins calculated. [formula]
I: Allergic reaction inhibitory index (%)
A: Pigment leakage amount of solvent control group
B: Pigment leakage amount of test substance group
C: Pigment leakage amount of […]
Consider `CC(=O)Oc1ccc2c(OC(C)=O)c(OC/C=C(\C)CCC=C(C)C)c(=O)oc2c1` [Compound 22, 3-(geranyloxy)-4,7-(diacetoxy)-2H-1-benzopyran-2-one], for which the “Allergic reaction inhibitory index (%)” value came out at 31%.

The same assay, now with this note: Cavia porcellus, 10 mg/kg oral, 48 h after sensitization, read-out: Allergic reaction inhibitory index (%).
As for `CC(C)=CCC/C(C)=C/COc1cccc2c(O)c(OC(=O)c3ccccc3)c(=O)oc12` [Compound 158, 3-(benzoyloxy)-4-hydroxy-8-(geranyloxy)-2H-1-benzopyran-2-one], the inhibition in vivo at 10 mg/kg was found to be 30%.

With `CC(C)=CCC/C(C)=C/COc1ccc2c(OC/C=C(\C)CCC=C(C)C)c(OC(=O)c3ccccc3)c(=O)oc2c1` [Compound 86, 3-(benzoyloxy)-4,7-(digeranyloxy)-2H-1-benzopyran-2-one], the inhibition in vivo at 10 mg/kg was found to be 30%. Same read-out and setting: then `CCCCOc1cccc2oc(=O)c(O)c(O)c12` [Compound 227, 3,4-(dihydroxy)-5-(butoxy)-2H-1-benzopyran-2-one], with 50%; and `COc1cccc2oc(=O)c(OC(=O)c3ccccc3)c(O)c12` [Compound 194, 3-(benzoyloxy)-4-hydroxy-5-(methoxy)-2H-1-benzopyran-2-one], with 46%.

As for `CCCCCCCCCCOc1ccc2oc(=O)c(O)c(OC)c2c1` [Compound 277, 3-(hydroxy)-4-(methoxy)-6-(decyloxy)-2H-1-benzopyran-2-one], the inhibition in vivo at 10 mg/kg came out at 35%. Still for that read-out and setting: then `COc1cccc2oc(=O)c(O)c(O)c12` [Compound 195, 3,4-(dihydroxy)-5-(methoxy)-2H-1-benzopyran-2-one], with 55%; and `CCCCCCCCCCOc1cccc2oc(=O)c(OC/C=C(\C)CCC=C(C)C)c(OC/C=C(\C)CCC=C(C)C)c12` [Compound 243, 3,4-(digeranyloxy)-5-(decyloxy)-2H-1-benzopyran-2-one], with 31%; and `COc1c(OC/C=C(\C)CCC=C(C)C)c(=O)oc2cc(O)ccc12` [Compound 24, 3-(geranyloxyl)-4-(methoxy)-7-hydroxy-2H-1-benzopyran-2-one], with 33%. On the same count and under the same terms, under `CCCCCCCCCCOc1cccc2oc(=O)c(O)c(OCCCC)c12` [Compound 234, 3-hydroxy-4-(butoxy)-5-(decyloxy)-2H-1-benzopyran-2-one] stands 33%. Same read-out and setting: under `CC(C)=CCC/C(C)=C/COc1c(OC/C=C(\C)CCC=C(C)C)c2cccc(O)c2oc1=O` [Compound 109, 3,4-(digeranyloxy)-8-hydroxy-2H-1-benzopyran-2-one] stands 34%; under `CC(=O)Oc1cccc2oc(=O)c(OC(=O)c3ccccc3)c(OC(C)=O)c12` [Compound 181, 3-(benzoyloxy)-4,5-(diacetoxy)-2H-1-benzopyran-2-one], 33%.

With `COc1c(OC/C=C(\C)CCC=C(C)C)c(=O)oc2c(OC/C=C(\C)CCC=C(C)C)cccc12` [Compound 171, 3,8-(digeranyloxy)-4-(methoxy)-2H-1-benzopyran-2-one], the inhibition in vivo at 10 mg/kg was found to be 33%. Still for that read-out and setting: then `CCCCCCCCCCOc1ccc2c(O)c(OC/C=C(\C)CCC=C(C)C)c(=O)oc2c1` [Compound 67, 3-(geranyloxy)-4-hydroxy-7-(decyloxy)-2H-1-benzopyran-2-one], with 39%; and `COc1cccc2c(O)c(OC/C=C(\C)CCC=C(C)C)c(=O)oc12` [Compound 120, 3-(geranyloxy)-4-hydroxy-8-(methoxy)-2H-1-benzopyran-2-one], with 33%. On the same count and under the same terms, then `COc1c(O)c2ccc(OC/C=C(\C)CCC=C(C)C)cc2oc1=O` [Compound 78, 3-(methoxy)-4-hydroxy-7-(geranyloxy)-2H-1-benzopyran-2-one], with 37%; and `CC(C)=CCC/C(C)=C/COc1cccc2c(O)c(O)c(=O)oc12` [Compound 159, 3,4-(hydroxy)-8-(geranyloxy)-2H-1-benzopyran-2-one], with 36%; and `CC(C)Oc1ccc2c(OC(=O)c3ccccc3)c(OC(C)C)c(=O)oc2c1` [Compound 52, 3,7-(diisopropoxy)-4-(benzoyloxy)-2H-1-benzopyran-2-one], with 32%. On the same count and under the same terms, then `CCCCCCCCCCOc1ccc2oc(=O)c(O)c(O)c2c1` [Compound 273, 3,4-(dihydroxy)-6-(decyloxy)-2H-1-benzopyran-2-one], with 30%.

In the case of `COc1cccc2oc(=O)c(OC/C=C(\C)CCC=C(C)C)c(OC(C)C)c12` [Compound 207, 3-(geranyloxy)-4-(isopropoxy)-5-(methoxy)-2H-1-benzopyran-2-one], the inhibition in vivo at 10 mg/kg was 33%. The same measure, in the same setting: under `CC(C)=CCC/C(C)=C/COc1c(OC/C=C(\C)CCC=C(C)C)c2ccc(O)cc2oc1=O` [Compound 26, 3,4-(digeranyloxy)-7-hydroxy-2H-1-benzopyran-2-one] stands 30%. The same measure, in the same setting: then `CC(C)=CCC/C(C)=C/COc1c(OC/C=C(\C)CCC=C(C)C)c2c(OC(C)C)cccc2oc1=O` [Compound 223, 3,4-(digeranyloxy)-5-(isopropoxy)-2H-1-benzopyran-2-one], with 33%; and `COc1cccc2c(OC/C=C(\C)CCC=C(C)C)c(O)c(=O)oc12` [Compound 121, 3-hydroxy-4-(geranyloxy)-8-(methoxy)-2H-1-benzopyran-2-one], with 30%. On the same count and under the same terms, then `CC(=O)Oc1c(OC/C=C(\C)CCC=C(C)C)c(=O)oc2cccc(O)c12` [Compound 189, 3-(geranyloxy)-4-(acetoxy)-5-hydroxy-2H-1-benzopyran-2-one], with 30%; and `CC(=O)Oc1c(OC/C=C(\C)CCC=C(C)C)c(=O)oc2c(O)cccc12` [Compound 104, 3-(geranyloxy)-4-(acetoxy)-8-hydroxy-2H-1-benzopyran-2-one], with 32%; and `COc1c(O)c2ccc(O)cc2oc1=O` [Compound 14, 3-(methoxy)-4,7-(dihydroxy)-2H-1-benzopyran-2-one], with 47%.

As to `COc1cccc2c(OC/C=C(\C)CCC=C(C)C)c(OC(C)=O)c(=O)oc12` [Compound 123, 3-(acetoxy)-4-(geranyloxy)-8-(methoxy)-2H-1-benzopyran-2-one], the inhibition in vivo at 10 mg/kg amounted to 34%.

For the molecule `CC(=O)Oc1c(O)c(=O)oc2cc(OC(C)C)ccc12` [Compound 46, 3-hydroxy-4-(acetoxy)-7-(isopropoxy)-2H-1-benzopyran-2-one], the inhibition in vivo at 10 mg/kg turned out to be 34%.

As for `CCCCCCCCCCOc1cccc2oc(=O)c(OC(=O)c3ccccc3)c(OC/C=C(\C)CCC=C(C)C)c12` [Compound 240, 3-(benzoyloxy)-4-(geranyloxy)-5-(decyloxy)-2H-1-benzopyran-2-one], the inhibition in vivo at 10 mg/kg stood at 30%. As for `COc1cccc2oc(=O)c(OC/C=C(\C)CCC=C(C)C)c(OC(=O)c3ccccc3)c12` [Compound 205, 3-(geranyloxy)-4-(benzoyloxy)-5-(methoxy)-2H-1-benzopyran-2-one], the inhibition in vivo at 10 mg/kg worked out at 31%. The same measure, in the same setting: then `COc1c(OC(C)=O)c2ccc(OC/C=C(\C)CCC=C(C)C)cc2oc1=O` [Compound 82, 3-(methoxy)-4-(acetoxy)-7-(geranyloxy)-2H-1-benzopyran-2-one], with 30%; and `CCCCCCCCCCOc1cccc2oc(=O)c(OC(=O)c3ccccc3)c(O)c12` [Compound 229, 3-(benzoyloxy)-4-hydroxy-5-(decyloxy)-2H-1-benzopyran-2-one], with 37%.
